Test results reported in patent US4857650A, “Novel renin inhibitory amino acid derivatives” (Kissei Pharmaceutical Co., Ltd., priority 1985, dated 1989).
Blank lines part the entries; values can stand above or below the molecule they belong to.

How the values were obtained:
[1] = target: T1, human renin (Homo sapiens, UniProt P00797); assay: Human renin-sheep renin substrate reaction system in vitro; format: biochemical; settings: pH 7.4, 15 minutes at 37° C., read-out: IC50 (molar concentration)
T1 sequence (P00797 67-406): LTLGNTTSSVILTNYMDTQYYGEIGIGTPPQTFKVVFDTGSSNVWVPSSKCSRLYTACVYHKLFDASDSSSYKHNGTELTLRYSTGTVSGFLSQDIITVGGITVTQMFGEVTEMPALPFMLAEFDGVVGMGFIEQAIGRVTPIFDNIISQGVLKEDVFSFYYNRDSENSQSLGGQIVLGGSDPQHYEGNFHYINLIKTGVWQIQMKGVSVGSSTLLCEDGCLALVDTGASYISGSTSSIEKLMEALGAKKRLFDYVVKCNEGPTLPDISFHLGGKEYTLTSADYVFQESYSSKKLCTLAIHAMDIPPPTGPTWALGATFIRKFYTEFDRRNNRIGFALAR
Experimental: Human resin-sheep resin substrate reaction system in vitro To a mixture containing 200 μl of a 125 mM pyrophosphate buffer (pH 7.4), 25 μl of a 20 mM aqueous solution of […] as an angiotensin converting enzyme inhibitor, 50 μl of semipurified sheep renin substrate ([…]), 50 μl of dimethyl sulfoxide solution of an amino acid derivative of the present invention (or 50 μl of dimethyl sulfoxide as a control) and 150 μl of deionized water was added 25 μl of purified human renin (20-30 ng angiotensin I/ml/hr). The mixture was incubated for 15 minutes on a water bath at 37° C., and the reaction mixture was allowed to stand for 5 minutes on a water bath at 100° C. to stop the reaction. After cooling, 200 μl of the solution were taken up and the amount of angiotensin I produced by the addition of renin was determined by radioimmunoassay. The inhibitory effect was calculated by the following equation. [formula] The molar concentration which produced 50% inhibition (IC50) was calculated from the inhibition value obtained, and the results are shown below.

[2] = system: common marmoset; assay: Hypotensive effect in marmoset (furosemide-induced high renin state); format: in vivo; settings: oral
Experimental: The experiment was carried out by using common marmoset as described in K. G. Hofbauer et al., Clinical and Experimental hypertension, Vol. A5, Nos. 7 & 8 (1983), pages 1237-1247.
Furosemide was orally administered three times to common marmoset at 15 mg per kilogram per day every other day to create a high renin state. Blood pressure of conscious marmoset was measured 2 days after the last administration of furosemide.
Measurement of blood pressure
Two conscious male marmosets weighing 365-380 g were fixed. Mean blood pressure at tail artery was recorded on pretismograph instument. The amino acid compound of the present invention, administered orally using a catheter.

[3] = target: T2, renin in human high renin plasma (Homo sapiens, UniProt P00797); assay: Renin inhibitory effect in a human high renin plasma; format: biochemical; settings: pH 7.4, 30 minutes at 37° C., read-out: IC50 (molar concentration)
T2 construct: 500 μl of human high renin plasma; from tissue; host or cells: human high renin plasma
T2 sequence (P00797 67-406): T1 sequence (P00797 67-406)
Experimental: Renin inhibitory effect in a human high renin plasma A mixture of 350 μl of a 0.5M phosphate buffer containing 14 mM EDTA 2Na and a 0.3% neomycin sulfate, which was adjusted to the pH of 7.4, 50 μl of a 20 mM an aqueous solution of […] as an angiotensin converting enzyme inhibitor and 100 μl of dimethyl sulfoxide solution containing an amino acid compound of the present invention was added to 500 μl of human high renin plasma. […] was incubated for 30 minutes at 37° C. in a water bath. A 200 μl sample was withdrawn from the incubated mixture, chilled immediately in an ice bath, and the amount of angiotensin I produced was determined by radioimmunoassay, and remaining of the mixture (200 μ[…] 4° C. in an ice bath. The amount of angiotensin I produced in the incubated mixture at 4° C. in an ice bath was determined by radioimmunoassay. As a control, the same procedure as above was carried out by using 100 μl of dimethyl sulfoxide alone in place of the 100 μl of dimethyl sulfoxide solution containing an amino acid compound of the present invention. The inhibitory effect was calculated by the following equation. [formula] The molar concentration which produced 50% inhibition (IC50) was calculated from the inhibition value obtained, and the results are shown below.

[4] = target: T1, human renin; settings: 106th Annual Meeting of the Pharmaceutical Society of Japan (April, 1986)/Meeting of Japanese Circulation Journal (March, 1986); cited from earlier work
[5] = 100 mg/kg, n = 2, 1 hour after administration, control 94.0 in (a), 90.9 in (c)
[6] = 100 mg/kg, n = 2, 2 hours after administration, control 94.0 in (a), 90.9 in (c)
[7] = 100 mg/kg, n = 2, 3 hours after administration, control 94.0 in (a), 90.9 in (c)
[8] = 100 mg/kg, n = 2, 5 hours after administration, control 94.0 in (a), 90.9 in (c)
[9] = 100 mg/kg, n = 2, 7 hours after administration, control 94.0 in (a), 90.9 in (c)

SMILES: COC(=O)[C@@H]1CCCN1C(=O)CC(Cc1cccc2ccccc12)C(=O)N[C@@H](Cc1c[nH]cn1)C(=O)N[C@@H](CC(C)C)C(O)C(=O)OC(C)C (stereo partly drawn) [Isopropyl(2RS,3S)-3-{N-[2-(1-naphthylmethyl)-3-(2S-methoxycarbonylpyrrolidinocarbonyl)propionyl]-L-histidyl}-amino-2-hydroxy-5-methylhexanoate]
- IC50 [1]: 0.052 µM
- Blood pressure [2, 5]: 77.5 mmHg
- Blood pressure [2, 6]: 74.0 mmHg
- Blood pressure [2, 7]: 70.0 mmHg
- Blood pressure [2, 8]: 92.2 mmHg
- Blood pressure [2, 9]: 101.5 mmHg
- IC50 [3]: 0.05 µM

SMILES: CC(C)CC(NC(=O)[C@H](Cc1c[nH]cn1)NC(=O)C(CC(=O)N1CCOCC1)Cc1cccc2ccccc12)C(O)C(=O)OC(C)C (some centres unmarked)
- human renin inhibitory activity [4]: human renin inhibitory activity

SMILES: COC(=O)CC(Cc1cccc2ccccc12)C(=O)N[C@@H](Cc1c[nH]cn1)C(=O)N[C@@H](CC(C)C)C(O)C(=O)NCCC(C)C (mixture of isomers) [(2RS,3S)-3-[3-Methoxycarbonyl-2-(1-naphthylmethyl)propionyl-L-histidyl]amino-2-hydroxy-5-methylhexanoylisoamylamide]
- IC50 [1]: 0.22 µM
- IC50 [3]: 0.69 µM

Continued by falling IC50 [1], values first:

- IC50 [1]: 0.041 µM
- IC50 [3]: 0.19 µM
SMILES: COC(=O)[C@@H]1CC(O)CN1C(=O)CC(Cc1cccc2ccccc12)C(=O)N[C@@H](Cc1c[nH]cn1)C(=O)N[C@@H](CC(C)C)C(O)C(=O)OC(C)C (stereo partly drawn) [Isopropyl(2RS,3S)-3-{N-[2-(1-naphthylmethyl)-3-(4-hydroxy-2S-methoxycarbonylpyrrolidinocarbonyl)-propionyl]-L-histidyl}amino-2-hydroxy-5-methylhexanoate]

- IC50 [1]: 0.033 µM
- IC50 [3]: 0.016 µM
SMILES: COC(=O)[C@H](C)N(C)C(=O)CC(Cc1cccc2ccccc12)C(=O)N[C@@H](Cc1c[nH]cn1)C(=O)N[C@@H](CC(C)C)C(O)C(=O)OC(C)C (stereo partly drawn) [Isopropyl(2RS,3S)-3-{N-{2-(1-naphthylmethyl)-3-[N-methyl-N-(1S-methoxycarbonylethyl)carbamoyl]propionyl}-L-histidyl}amino-2-hydroxy-5-methylhexanoate]

- IC50 [1]: 0.025 µM
- IC50 [3]: 0.056 µM
SMILES: COC(=O)CC(Cc1cccc2ccccc12)C(=O)N[C@@H](Cc1c[nH]cn1)C(=O)N[C@@H](CC(C)C)C(O)C(=O)OC(C)C (mixture of isomers) [Isopropyl (2RS,3S)-3-[3-(methoxycarbonyl)-2-(1-naphthylmethyl)propionyl-L-histidyl]amino-2-hydroxy-5-methylhexanoate]
- Blood pressure [2, 5]: 78.6 mmHg
- Blood pressure [2, 6]: 76.9 mmHg
- Blood pressure [2, 7]: 69.4 mmHg
- Blood pressure [2, 8]: 76.0 mmHg
- Blood pressure [2, 9]: 77.8 mmHg
- Blood pressure ([2]; 100 mg/kg, n = 2, 9 hours after administration, control 90.9 in (c)): 85.3 mmHg

- IC50 [1]: 0.017 µM
- IC50 [3]: 0.02 µM
SMILES: COC(=O)CN(C)C(=O)CC(Cc1cccc2ccccc12)C(=O)N[C@@H](Cc1c[nH]cn1)C(=O)N[C@@H](CC(C)C)C(O)C(=O)OC(C)C (mixture of isomers) [Isopropyl(2RS,3S)-3-{N-[2-(1-naphthylmethyl)-3-(N-methyl-N-methoxycarbonylmethylcarbamoyl)propionyl]-L-histidyl}amino-2-hydroxy-5-methylhexanoate]
- Blood pressure ([2]; 30 mg/kg, n = 2, 1 hour after administration, control 95.4): 62.1 mmHg
- Blood pressure ([2]; 30 mg/kg, n = 2, 2 hours after administration, control 95.4): 59.8 mmHg
- Blood pressure ([2]; 30 mg/kg, n = 2, 3 hours after administration, control 95.4): 66.5 mmHg
- Blood pressure ([2]; 30 mg/kg, n = 2, 5 hours after administration, control 95.4): 84.9 mmHg
- Blood pressure ([2]; 30 mg/kg, n = 2, 7 hours after administration, control 95.4): 88.3 mmHg
